Reference: ChEMBL document CHEMBL5584201, “Amphiphilic tribasic galactosamines potentiate rifampicin in Gram-negative bacteria at low Mg++/Ca++concentrations” (Bioorg Med Chem Lett, 2024)

The compounds below were run on Pseudomonas aeruginosa (assay: Potentiation of rifampicin-induced antibacterial activity against Pseudomonas aeruginosa PAO1 assessed as fold change in rifampicin MIC in low salt containing media by Mueller-Hinton broth based assay).
Type: functional

Row | Structure (SMILES) | fold change (FC)
1 | CCCCCCCCO[C@H]1[C@@H](N)[C@@H](CN=[N+]=[N-])O[C@@H](OCc2ccc3ccccc3c2)[C@@H]1N | 2

Each compound was assayed on Acinetobacter baumannii (assay: Potentiation of rifampicin-induced antibacterial activity against Acinetobacter baumannii ATCC 17978 assessed as fold change in rifampicin MIC in low salt containing media by Mueller-Hinton broth based assay).
Type: functional

Row | Structure (SMILES) | fold change (FC)
2 | CCCCCCCCO[C@H]1[C@@H](N)[C@@H](CN=[N+]=[N-])O[C@@H](OCc2ccc3ccccc3c2)[C@@H]1N | 128

The compounds below were run on Pseudomonas aeruginosa (assay: Antibacterial activity against Pseudomonas aeruginosa PAO1 in low salt containing media by Mueller-Hinton broth based assay).
Type: functional

Row | Structure (SMILES) | MIC
3 | CCCCCCCCO[C@H]1[C@@H](N)[C@@H](CN=[N+]=[N-])O[C@@H](OCc2ccc3ccccc3c2)[C@@H]1N | 32 µg/mL

The compounds below were run on Escherichia coli (assay: Potentiation of rifampicin-induced antibacterial activity against Escherichia coli ATCC 25922 assessed as rifampicin MIC in low salt containing media by Mueller-Hinton broth based assay).
Type: functional

Row | Structure (SMILES) | MIC
4 | CCCCCCCCO[C@H]1[C@@H](N)[C@@H](CN=[N+]=[N-])O[C@@H](OCc2ccc3ccccc3c2)[C@@H]1N | 1 µg/mL

Each compound was assayed on Escherichia coli (assay: Potentiation of rifampicin-induced antibacterial activity against Escherichia coli ATCC 25922 assessed as fold change in rifampicin MIC in low salt containing media by Mueller-Hinton broth based assay).
Type: functional

Row | Structure (SMILES) | fold change (FC)
5 | CCCCCCCCO[C@H]1[C@@H](N)[C@@H](CN=[N+]=[N-])O[C@@H](OCc2ccc3ccccc3c2)[C@@H]1N | 8

Each compound was assayed on Acinetobacter baumannii (assay: Antibacterial activity against Acinetobacter baumannii ATCC 17978 in low salt containing media by Mueller-Hinton broth based assay).
Type: functional

Row | Structure (SMILES) | MIC
6 | CCCCCCCCO[C@H]1[C@@H](N)[C@@H](CN=[N+]=[N-])O[C@@H](OCc2ccc3ccccc3c2)[C@@H]1N | 16 µg/mL

What follows are compounds tested on Escherichia coli (assay: Antibacterial activity against Escherichia coli ATCC 25922 in low salt containing media by Mueller-Hinton broth based assay).
Type: functional

Row | Structure (SMILES) | MIC
7 | CCCCCCCCO[C@H]1[C@@H](N)[C@@H](CN=[N+]=[N-])O[C@@H](OCc2ccc3ccccc3c2)[C@@H]1N | 8 µg/mL

What follows are compounds tested on Acinetobacter baumannii (assay: Potentiation of rifampicin-induced antibacterial activity against Acinetobacter baumannii ATCC 17978 assessed as rifampicin MIC in low salt containing media by Mueller-Hinton broth based assay).
Type: functional

Row | Structure (SMILES) | MIC
8 | CCCCCCCCO[C@H]1[C@@H](N)[C@@H](CN=[N+]=[N-])O[C@@H](OCc2ccc3ccccc3c2)[C@@H]1N | 4 µg/mL

What follows are compounds tested on Pseudomonas aeruginosa (assay: Potentiation of rifampicin-induced antibacterial activity against Pseudomonas aeruginosa PAO1 assessed as rifampicin MIC in low salt containing media by Mueller-Hinton broth based assay).
Type: functional

Row | Structure (SMILES) | MIC
9 | CCCCCCCCO[C@H]1[C@@H](N)[C@@H](CN=[N+]=[N-])O[C@@H](OCc2ccc3ccccc3c2)[C@@H]1N | 8 µg/mL
